{"source": "paper PMC10126473", "about": "(Frontiers in Pharmacology, 2023)", "experiment": "Mouse PK and tissue distribution study (non-compartmental analysis)", "settings": "mice; for Tmax / half-life: male, C57BL/6, mouse, in vivo, po; for Tmax: Tmax Obs; for half-life: t1/2 Obs", "procedure": "The in-life study (Animal Study Protocol Number: NIH ORS-51) was conducted at the NIH Animal Facility by the Division of Veterinary Resources (DVR, Bethesda, MD). In this study, 25–35 g male C57BL/6 mice (Charles River Laboratories, Frederick, MD) were used. For the IV groups, 66 mice (33 mice per dosing group, 3 mice per timepoint) were used for a single bolus IV dose of 3 or 10 mg/kg of PDN via tail vein injection. […] The IV and PO doses were selected to obtain a complete concentration profile in plasma and tissues, based on a preliminary study. Animals were not fasted in this study. […] All dosing solutions were freshly prepared on the day of dosing. At designated time points, blood samples were collected, and mice were euthanized with CO2 in accordance with NIH ARAC Guidelines after blood collection. The death was ensured by cervical dislocation or transthoracic puncture. Lung, liver, adipose, brain, heart, small intestine, kidney, skeletal muscle, and spleen samples were obtained from mice. […] Tissue samples were rinsed with cold saline, dried on filtrate paper, weighed, and snap frozen by placing into dry ice after collection. All samples were stored at −80°C until the analysis. All blood samples were collected in K2EDTA tubes and centrifuged at 3000 g for 10 min at 4°C to obtain plasma. Plasma samples were transferred to tubes preloaded with NaF (final concentration at 5 mM in 200 µL plasma) and stored at −80°C until analysis.\nFor fat tissue, an additional 3-fold volume of acetonitrile was added to the water homogenate and was vortexed in a shaker for another 30 min.\nA 10 μ aliquot of samples, blank controls (blank plasma or tissue homogenates), quality controls (QC), and standards were added into 200 μ acetonitrile solution with 100 ng/mL tolbutamide (internal standard, IS). All samples were then thoroughly shaken for 5 min to precipitate proteins. The samples were centrifuged at 3000 rpm and 4°C for 30 min. The supernatant was injected for UPLC-MS/MS analysis.\nThe mobile phase consisted of 0.1% formic acid in water (A) and 0.1% formic acid in acetonitrile (B), the flow rate was 600 μL/min. […] All analyses were carried out using a Waters Acquity I-Class UPLC interfaced with a Waters Xevo TQ-S mass spectrometer. The mass spectrometer multiple reaction monitoring (MRM) experiment was operated with an ESI source at negative mode with spray voltage of 1 kV, and temperature of 600°C. Both Q1 and Q3 were set at unit resolution. […] The correlation coefficients of the calibration curves were all greater than 0.99. […] The linear range, precision and accuracy of QCs in various tissues and plasma are shown in Supplementary Table S1 and Supplementary Table S2.\nThe area under the concentration vs. time curve (AUC) was calculated using the linear trapezoidal method. The terminal rate constant (λ) was obtained from the slope of at least three data points of the apparent terminal phase of the log linear concentration vs. time curve. AUC0–∞ was estimated as the sum of the AUC0–t (where t is the time of the last measurable concentration) and Ct/λ. […] Bioavailability (F) was calculated using ratios of dose-normalized AUC of PO and IV administration.", "key": {"[1]": {"settings": "10 mg/kg, PO 10 mg/kg PDN, brain"}, "[2]": {"settings": "10 mg/kg, PO 10 mg/kg PDN, heart"}, "[3]": {"settings": "10 mg/kg, PO 10 mg/kg PDN, intestine"}, "[4]": {"settings": "10 mg/kg, PO 10 mg/kg PDN, kidney"}, "[5]": {"settings": "10 mg/kg, PO 10 mg/kg PDN, liver"}, "[6]": {"settings": "10 mg/kg, PO 10 mg/kg PDN, lung"}, "[7]": {"settings": "10 mg/kg, PO 10 mg/kg PDN, muscle"}, "[8]": {"settings": "10 mg/kg, PO 10 mg/kg PDN, plasma"}, "[9]": {"settings": "10 mg/kg, PO 10 mg/kg PDN, spleen"}}, "data": [{"smiles": "O=C(Nc1ccc([N+](=O)[O-])cc1Cl)c1cc(Cl)ccc1OC(=O)N1CCNCC1", "note": "[PDN]", "values": [{"measurement": "Tmax", "setting": "[1]", "value": 1.5, "unit": "h"}, {"measurement": "Tmax", "setting": "[2]", "value": 1.5, "unit": "h"}, {"measurement": "Tmax", "setting": "[3]", "value": 0.167, "unit": "h"}, {"measurement": "Tmax", "setting": "[4]", "value": 1.5, "unit": "h"}, {"measurement": "Tmax", "setting": "[5]", "value": 1.5, "unit": "h"}, {"measurement": "Tmax", "setting": "[6]", "value": 1.5, "unit": "h"}, {"measurement": "Tmax", "setting": "[7]", "value": 1.5, "unit": "h"}, {"measurement": "Tmax", "setting": "[8]", "value": 1.5, "unit": "h"}, {"measurement": "Tmax", "setting": "[9]", "value": 1.5, "unit": "h"}, {"measurement": "half-life", "setting": "10 mg/kg, PO 10 mg/kg PDN, adipose", "value": 3.48, "unit": "h"}, {"measurement": "half-life", "setting": "[1]", "value": 2.45, "unit": "h"}, {"measurement": "half-life", "setting": "[2]", "value": 2.16, "unit": "h"}, {"measurement": "half-life", "setting": "[3]", "value": 1.79, "unit": "h"}, {"measurement": "half-life", "setting": "[4]", "value": 2.99, "unit": "h"}, {"measurement": "half-life", "setting": "[5]", "value": 2.36, "unit": "h"}, {"measurement": "half-life", "setting": "[6]", "value": 3.29, "unit": "h"}, {"measurement": "half-life", "setting": "[7]", "value": 2.83, "unit": "h"}, {"measurement": "half-life", "setting": "[8]", "value": "~3.2", "unit": "h"}, {"measurement": "half-life", "setting": "[9]", "value": 3.16, "unit": "h"}, {"measurement": "AUC0-∞ Obs", "setting": "IV 3 mg/kg PDN, adipose", "value": "990 (169) h*ng/g"}, {"measurement": "AUC0-∞ Obs", "setting": "IV 3 mg/kg PDN, brain", "value": "1024 (124) h*ng/g"}, {"measurement": "AUC0-∞ Obs", "setting": "IV 3 mg/kg PDN, heart", "value": "5676 (481) h*ng/g"}, {"measurement": "AUC0-∞ Obs", "setting": "IV 3 mg/kg PDN, intestine", "value": "3222 (749) h*ng/g"}, {"measurement": "AUC0-∞ Obs", "setting": "IV 3 mg/kg PDN, kidney", "value": "9833 (1080) h*ng/g"}, {"measurement": "AUC0-∞ Obs", "setting": "IV 3 mg/kg PDN, lung", "value": "53071 (4993) h*ng/g"}, {"measurement": "AUC0-∞ Obs", "setting": "IV 3 mg/kg PDN, muscle", "value": "1828 (221) h*ng/g"}, {"measurement": "AUC0-∞ Obs", "setting": "IV 3 mg/kg PDN, spleen", "value": "16808 (1242) h*ng/g"}, {"measurement": "AUC0-∞ Obs", "setting": "IV 10 mg/kg PDN, brain", "value": "5622 (1331) h*ng/g"}, {"measurement": "AUC0-∞ Obs", "setting": "IV 10 mg/kg PDN, heart", "value": "31647 (6073) h*ng/g"}, {"measurement": "AUC0-∞ Obs", "setting": "IV 10 mg/kg PDN, intestine", "value": "14586 (1295) h*ng/g"}, {"measurement": "AUC0-∞ Obs", "setting": "IV 10 mg/kg PDN, kidney", "value": "62371 (6713) h*ng/g"}, {"measurement": "AUC0-∞ Obs", "setting": "IV 10 mg/kg PDN, liver", "value": "883 (323) h*ng/g"}, {"measurement": "AUC0-∞ Obs", "setting": "IV 10 mg/kg PDN, lung", "value": "173216 (21722) h*ng/g"}, {"measurement": "AUC0-∞ Obs", "setting": "IV 10 mg/kg PDN, muscle", "value": "10301 (2999) h*ng/g"}, {"measurement": "AUC0-∞ Obs", "setting": "IV 10 mg/kg PDN, spleen", "value": "63505 (10129) h*ng/g"}, {"measurement": "AUC0-∞ Obs", "setting": "PO 10 mg/kg PDN, adipose", "value": "2788 (299) h*ng/g"}, {"measurement": "AUC0-∞ Obs", "setting": "PO 10 mg/kg PDN, brain", "value": "2741 (488) h*ng/g"}, {"measurement": "AUC0-∞ Obs", "setting": "PO 10 mg/kg PDN, heart", "value": "10680 (1787) h*ng/g"}, {"measurement": "AUC0-∞ Obs", "setting": "PO 10 mg/kg PDN, intestine", "value": "37739 (6003) h*ng/g"}, {"measurement": "AUC0-∞ Obs", "setting": "PO 10 mg/kg PDN, kidney", "value": "40372 (8592) h*ng/g"}, {"measurement": "AUC0-∞ Obs", "setting": "PO 10 mg/kg PDN, liver", "value": "591 (176) h*ng/g"}, {"measurement": "AUC0-∞ Obs", "setting": "PO 10 mg/kg PDN, lung", "value": "123875 (23366) h*ng/g"}, {"measurement": "AUC0-∞ Obs", "setting": "PO 10 mg/kg PDN, muscle", "value": "4005 (814) h*ng/g"}, {"measurement": "AUC0-∞ Obs", "setting": "PO 10 mg/kg PDN, spleen", "value": "45737 (9727) h*ng/g"}, {"measurement": "F (bioavailability) Obs", "setting": "PO 10 mg/kg PDN, 10 mg/kg", "value": 85.8, "unit": "%"}]}]}
